Experimental data published in US6362369B1, “Phthalic acid diamide derivatives fluorine-containing aniline compounds as starting material, agricultural and horticultural insecticides, and a method for application of the insecticides” (Nihon Nohyaku Co., Ltd., priority 1997, dated 2002).

Assays:
[1] = test system: diamondback moth (Plutella xylostella); assay: Insecticidal effect on diamondback moth (Test Example 1); format: in vivo; conditions: for Insecticidal effect (Test Example 1), judged from mortality / Insecticidal effect, Test Example 1: diamondback moth; for Insecticidal effect (Test Example 1), judged from mortality: judged by the criterion of Test Example 1; for Insecticidal effect, Test Example 1: judged by the mortality criterion of Test Example 1; for Insecticidal effect on diamondback moth (Test Example 1), judged grade: mortality judged according to the criterion shown in Test Example 1
Summary of the method: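 Eggs laid by adult moths on Chinese cabbage seedlings, which were immersed in test solution, air-dried and kept at 25 °C. Hatched insects counted 6 days after immersion and mortality calculated, with effect graded by criterion; triplicate groups of 10 insects.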

[2] = test system: common cutworm (Spodoptera Litura); assay: Insecticidal effect on common cutworm (Test Example 2); format: in vivo; conditions: 500 ppm, 25° C.; for Insecticidal effect (Test Example 2), judged from mortality / Insecticidal effect on common cutworm (Test Example 2), judged grade: cabbage leaf dip; for Insecticidal effect (Test Example 2), judged from mortality / Insecticidal effect, Test Example 2: second-instar larvae of common cutworm; for Insecticidal effect (Test Example 2), judged from mortality: 8 days after inoculation; for Insecticidal effect, Test Example 2: cabbage leaf immersed; for Insecticidal effect, Test Example 2 / Insecticidal effect on common cutworm (Test Example 2), judged grade: eight days after inoculation; for Insecticidal effect on common cutworm (Test Example 2), judged grade: second-instar larvae
Protocol: Insecticidal effect on common cutworm (Spodoptera Litura)
After air-drying, it was placed in a plastic Petri dish with a diameter of 9 cm and inoculated with second-instar larvae of common cutworm, after which the dish was closed and then allowed to stand in a room thermostated at 25° C. Eight days after the inoculation, the dead and alive were counted. The mortality was calculated according to the following equation and the insecticidal effect was judged according to the criterion shown in Test Example 1. The test was carried out with triplicate groups of 10 insects. [formula]

Row | SMILES | Insecticidal effect, Test Example 1 [1] | Insecticidal effect, Test Example 2 [2] | Insecticidal effect on diamondback moth (Test Example 1), judged grade [1] | Insecticidal effect on common cutworm (Test Example 2), judged grade [2] | further results
1 | CC(C)NC(=O)c1c(I)cccc1C(=O)Nc1cc2c(cc1Cl)OC(F)C(F)(F)O2 (racemic) [compound 1600] |  |  |  |  | Insecticidal effect (Test Example 1), judged from mortality [1]: A (100); Insecticidal effect (Test Example 2), judged from mortality [2]: A (100)
2 | CC(C)NC(=O)c1c(I)cccc1C(=O)Nc1cc2c(cc1Cl)OC(F)(F)C(F)O2 (racemic) [compound 1601] |  |  |  |  | Insecticidal effect (Test Example 1), judged from mortality [1]: A (100); Insecticidal effect (Test Example 2), judged from mortality [2]: A (100)
3 | CNC(=O)c1ccccc1C(=O)Nc1ccc(C(F)(F)F)cc1 [compound 2] | A (100) | C (89-80) |  |  | 
4 | CCN(CC)C(=O)c1ccccc1C(=O)Nc1ccc(C(F)(F)F)cc1 [compound 12] | A (100) | D (79-50) |  |  | 
5 | CC(C)NC(=O)c1ccccc1C(=O)Nc1ccc([N+](=O)[O-])cc1 [compound 22] | A (100) | D (79-50) |  |  | 
6 | CC(C)NC(=O)c1ccccc1C(=O)Nc1ccc(SC(F)(F)C(F)F)cc1 [compound 34] | A (100) | C (89-80) |  |  | 
7 | CC(C)NC(=O)c1ccccc1C(=O)Nc1ccc(F)c(F)c1 [compound 43] | B (99-90) | D (79-50) |  |  | 
8 | Cc1cc(OCC(F)(F)C(F)F)ccc1NC(=O)c1cccc(Cl)c1C(=O)NC(C)C [compound 147] | A (100) | C (89-80) |  |  | 
9 | CC(C)NC(=O)c1c(Cl)cccc1C(=O)Nc1ccc(OC(F)F)c(C(F)(F)F)c1 [compound 164] | A (100) | A (100) |  |  | 
10 | CC(C)NC(=O)c1cc(Cl)ccc1C(=O)Nc1ccc(F)cc1 [compound 169] | A (100) | D (79-50) |  |  | 
11 | Cc1ccccc1NC(=O)c1cc(Cl)ccc1C(=O)NC(C)C [compound 183] | A (100) | B (99-90) |  |  | 
12 | Cc1cc(OC(F)F)ccc1NC(=O)c1cc(Cl)ccc1C(=O)NC(C)C [compound 193] | A (100) | D (79-50) |  |  | 
13 | Cc1ccc(Cl)cc1NC(=O)c1c(Cl)cccc1C(=O)NC(C)C [compound 215] | A (100) | D (79-50) |  |  | 
14 | Cc1cc(OC(F)(F)C(F)OC(F)(F)F)ccc1NC(=O)c1c(Cl)cccc1C(=O)NC(C)C (centres unmarked) [compound 244] | A (100) | C (89-80) |  |  | 
15 | Cc1cc(OC(F)F)c(Cl)cc1NC(=O)c1c(Cl)cccc1C(=O)NC(C)C [compound 245] | A (100) | D (79-50) |  |  | 
16 | Cc1cc(Oc2c(F)c(F)c(F)c(F)c2F)ccc1NC(=O)c1c(Cl)cccc1C(=O)NC(C)C [compound 248] | A (100) | C (89-80) |  |  | 
17 | CC(C)NC(=O)c1cccc(Cl)c1C(=O)Nc1ccc(OC(F)F)c(C(F)(F)F)c1 [compound 254] | A (100) | A (100) |  |  | 
18 | Cc1ccc(NC(=O)c2c(Br)cccc2C(=O)NC(C)C)c(C)c1Cl [compound 309] | A (100) | A (100) |  |  | 
19 | COc1ccc(NC(=O)c2c(Br)cccc2C(=O)NC(C)C)c(C)c1C [compound 321] | A (100) | A (100) |  |  | 
20 | CC(C)NC(=O)c1cccc(I)c1C(=O)Nc1ccc(SC(F)(F)C(F)(F)C(F)(F)F)cc1 [compound 424] | A (100) | A (100) |  |  | 
21 | Cc1ccc(NC(=O)c2c(I)cccc2C(=O)NC(C)C)c(C)c1Cl [compound 429] | A (100) | D (79-50) |  |  | 
22 | Cc1cc(I)ccc1NC(=O)c1c(I)cccc1C(=O)NC(C)C [compound 431] | A (100) | A (100) |  |  | 
23 | COc1ccc(NC(=O)c2c(I)cccc2C(=O)NC(C)C)c(C)c1C [compound 451] |  |  | A (100) | A (100) | 

Row | SMILES | Insecticidal effect, Test Example 1 [1] | Insecticidal effect, Test Example 2 [2] | Insecticidal effect on diamondback moth (Test Example 1), judged grade [1] | Insecticidal effect on common cutworm (Test Example 2), judged grade [2] | further results
24 | Cc1cc(Oc2ccc(C(F)(F)F)cn2)ccc1NC(=O)c1c(I)cccc1C(=O)NC(C)C [compound 460] |  |  | A (100) | B (99-90) | 
25 | CC(C)NC(=O)c1cccc(F)c1C(=O)Nc1ccc(C(F)(F)C(F)(F)C(F)(F)F)cc1 [compound 535] |  |  | A (100) | A (100) | 
26 | Cc1cc(OC(F)(F)C(F)OC(F)(F)F)ccc1NC(=O)c1c(F)cccc1C(=O)NC(C)C (centres unmarked) [compound 570] |  |  | A (100) | A (100) | 
27 | Cc1cc(OC(F)F)c(Cl)cc1NC(=O)c1c(F)cccc1C(=O)NC(C)C [compound 571] |  |  | A (100) | C (89-80) | 
28 | CC(C)NC(=O)c1c(C(=O)Nc2cccc(Cl)c2Cl)cccc1[N+](=O)[O-] [compound 584] |  |  | A (100) | D (79-50) | 
29 | CC(C)NC(=O)c1c(C(=O)Nc2ccc(Br)cc2)cccc1[N+](=O)[O-] [compound 591] |  |  | A (100) | D (79-50) | 
30 | CC(C)NC(=O)c1c(C(=O)Nc2ccc(Cl)cc2Cl)cccc1[N+](=O)[O-] [compound 633] |  |  | A (100) | D (79-50) | 
31 | CC(C)NC(=O)c1c(C(=O)Nc2c(Cl)cccc2Cl)cccc1[N+](=O)[O-] [compound 635] |  |  | A (100) | D (79-50) | 
32 | CC(C)NC(=O)c1c(C(=O)Nc2c(F)cccc2F)cccc1[N+](=O)[O-] [compound 641] |  |  | D (79-50) | D (79-50) | 
33 | CC(C)NC(=O)c1c(C(=O)Nc2ccc(Cl)c(Cl)c2Cl)cccc1[N+](=O)[O-] [compound 644] |  |  | A (100) | A (100) | 
34 | CC(C)NC(=O)c1c(C(=O)Nc2c(F)c(F)c(F)c(F)c2F)cccc1[N+](=O)[O-] [compound 646] |  |  | A (100) | D (79-50) | 
35 | Cc1cc(Cl)ccc1NC(=O)c1cccc([N+](=O)[O-])c1C(=O)NC(C)C [compound 664, 3-nitro-N^1-(4-chloro-2-methylphenyl)-N^2-isopropyl-phthalic acid diamide] |  |  | A (100) | A (100) | 
36 | CC(C)NC(=O)c1c(C(=O)Nc2ccc(OC(F)F)cc2C(F)(F)F)cccc1[N+](=O)[O-] [compound 692] |  |  | A (100) | D (79-50) | 
37 | CC(C)NC(=O)c1c(C(=O)Nc2ccc(OC(F)F)c(C(F)(F)F)c2)cccc1[N+](=O)[O-] [compound 693] |  |  | A (100) | A (100) | 
38 | Cc1cc([N+](=O)[O-])ccc1NC(=O)c1cccc([N+](=O)[O-])c1C(=O)NC(C)C [compound 706] |  |  | A (100) | A (100) | 
39 | Cc1c(NC(=O)c2cccc([N+](=O)[O-])c2C(=O)NC(C)C)ccc([N+](=O)[O-])c1C [compound 709] |  |  | A (100) | A (100) | 
40 | CSc1ccc(NC(=O)c2cccc([N+](=O)[O-])c2C(=O)NC(C)C)c(C)c1 [compound 719] |  |  | A (100) | D (79-50) | 
41 | Cc1cc(Oc2c(F)c(F)c(F)c(F)c2F)ccc1NC(=O)c1cccc([N+](=O)[O-])c1C(=O)NC(C)C [compound 725] |  |  | A (100) | A (100) | 
42 | Cc1ccc(Cl)cc1NC(=O)c1cccc([N+](=O)[O-])c1C(=O)NCC(C)C [compound 831] |  |  | D (79-50) | D (79-50) | 
43 | Cc1ccc(Cl)cc1NC(=O)c1ccccc1C(=O)NC(C)(C)C [compound 841] |  |  | A (100) | D (79-50) | 
44 | Cc1ccc(Cl)cc1NC(=O)c1cccc([N+](=O)[O-])c1C(=O)NC1CCCC1 [compound 858] |  |  | C (89-80) | A (100) | 
45 | C#CCNC(=O)c1c(C(=O)Nc2cc(Cl)ccc2C)cccc1[N+](=O)[O-] [compound 869] |  |  | A (100) | D (79-50) | 
46 | O=C(Nc1ccc(C(F)(F)F)cc1)c1ccccc1C(=O)N1CCCC1 [compound 881] |  |  | A (100) | D (79-50) | 
